# Measurements from patent US20250041293A1, “AN IGF1R INHIBITOR AND AN AKT INHIBITOR FOR USE IN THE TREATMENT OF CANCER” (Genome Research Limited, priority 2022, published 2025).
# Where two headings read alike, the source gives them in different places.
# Columns and labels:
# FGF-R, PDGF-R, or EGF-R = conditions: for example FGF-R; cited from earlier work
# IR = IR (Homo sapiens, UniProt P06213); conditions: cited from earlier work
# SRC = SRC (Homo sapiens, UniProt P12931); conditions: cell-free assays; cited from earlier work
# LYN = LYN (Homo sapiens, UniProt P07948); conditions: cell-free assays; cited from earlier work
# [1] = weekly 1-hr IV infusions; patients with solid tumours or multiple myeloma; cited from earlier work
# ABL T3151 = ABL T3151 (Homo sapiens, UniProt P00519, T315I); conditions: cell-free assays; cited from earlier work
# [2] = phase I, patients with multiple myeloma; cited from earlier work
# Mek = conditions: cited from earlier work
# Akt1 = Akt1 (Homo sapiens, UniProt P31749); conditions: cited from earlier work
# MAPK1/2 = conditions: cited from earlier work
# [3] = system: Akt1/2, Aurora A/B,B-Raf, CDK2, and EGFR; conditions: cited from earlier work
# PKC = conditions: cited from earlier work
# PKA = conditions: cited from earlier work
# colon cancer cell lines = assay: Anchored 2x7 combination viability screen (CellTiter-Glo, 72 h), colon cancer cell lines; format: cell-based; conditions: in combination with MK-2206, colon; compared with Linsitinib+MK-2206
# Experimental: To screen efficiently we used a 2×7 concentration matrix, or “anchored” approach. We screened each anchor compound at two optimised concentrations and a discontinuous 1,000-fold (7-point) dose-response curve of the library compound. Viability was read out after 72 h of drug treatment using CellTiter-Glo and drug responses for single agent and combination responses were fitted. […] The combination was screened in both anchor and library orientations, the first named compound being the anchor compound.
# Akt2 = Akt2 (Homo sapiens, UniProt P31751); conditions: assay format not stated; cited from earlier work
# Akt3 = Akt3 (Homo sapiens, UniProt Q9Y243); conditions: assay format not stated; cited from earlier work
# IGF1R = IGF1R (Homo sapiens, UniProt P08069); conditions: assay format not stated; cited from earlier work
# insulin receptor (IR) = insulin receptor (IR) (Homo sapiens, UniProt P06213); conditions: assay format not stated; cited from earlier work
# Sequence of insulin receptor (IR) (P06213 28-1382): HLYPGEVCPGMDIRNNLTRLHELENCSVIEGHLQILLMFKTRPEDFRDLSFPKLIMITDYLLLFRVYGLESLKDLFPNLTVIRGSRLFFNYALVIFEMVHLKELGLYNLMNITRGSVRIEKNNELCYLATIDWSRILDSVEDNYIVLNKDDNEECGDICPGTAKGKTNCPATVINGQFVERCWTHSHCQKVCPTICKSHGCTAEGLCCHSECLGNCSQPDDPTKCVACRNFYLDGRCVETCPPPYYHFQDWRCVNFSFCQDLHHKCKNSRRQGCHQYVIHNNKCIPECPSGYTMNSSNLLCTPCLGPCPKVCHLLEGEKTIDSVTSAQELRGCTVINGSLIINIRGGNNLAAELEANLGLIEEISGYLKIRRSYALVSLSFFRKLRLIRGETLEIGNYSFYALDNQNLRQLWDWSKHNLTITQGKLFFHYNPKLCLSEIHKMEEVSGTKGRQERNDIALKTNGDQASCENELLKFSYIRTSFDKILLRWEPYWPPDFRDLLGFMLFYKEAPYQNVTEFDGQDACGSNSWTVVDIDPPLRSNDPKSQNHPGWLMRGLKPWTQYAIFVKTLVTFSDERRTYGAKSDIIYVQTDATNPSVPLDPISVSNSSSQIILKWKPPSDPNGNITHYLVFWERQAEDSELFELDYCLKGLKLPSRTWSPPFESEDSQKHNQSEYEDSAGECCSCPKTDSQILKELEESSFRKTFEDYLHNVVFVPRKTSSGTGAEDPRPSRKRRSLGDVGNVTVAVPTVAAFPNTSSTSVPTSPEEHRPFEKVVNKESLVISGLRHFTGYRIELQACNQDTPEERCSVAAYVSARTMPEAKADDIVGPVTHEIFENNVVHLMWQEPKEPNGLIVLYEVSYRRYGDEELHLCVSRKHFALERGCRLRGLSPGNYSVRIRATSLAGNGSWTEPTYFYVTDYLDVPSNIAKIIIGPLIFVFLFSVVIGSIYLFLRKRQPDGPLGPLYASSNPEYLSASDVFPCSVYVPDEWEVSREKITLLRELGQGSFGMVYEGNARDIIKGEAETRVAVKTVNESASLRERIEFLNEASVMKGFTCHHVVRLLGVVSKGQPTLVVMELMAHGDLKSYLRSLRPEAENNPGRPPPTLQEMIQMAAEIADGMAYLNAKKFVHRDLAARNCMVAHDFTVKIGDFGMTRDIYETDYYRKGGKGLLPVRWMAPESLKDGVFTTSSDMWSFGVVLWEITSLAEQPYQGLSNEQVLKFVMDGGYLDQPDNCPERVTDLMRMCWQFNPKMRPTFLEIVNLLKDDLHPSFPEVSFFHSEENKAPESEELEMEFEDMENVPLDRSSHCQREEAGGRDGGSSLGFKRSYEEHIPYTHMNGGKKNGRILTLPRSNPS
# Sequence of Akt1 (P31749 whole entry): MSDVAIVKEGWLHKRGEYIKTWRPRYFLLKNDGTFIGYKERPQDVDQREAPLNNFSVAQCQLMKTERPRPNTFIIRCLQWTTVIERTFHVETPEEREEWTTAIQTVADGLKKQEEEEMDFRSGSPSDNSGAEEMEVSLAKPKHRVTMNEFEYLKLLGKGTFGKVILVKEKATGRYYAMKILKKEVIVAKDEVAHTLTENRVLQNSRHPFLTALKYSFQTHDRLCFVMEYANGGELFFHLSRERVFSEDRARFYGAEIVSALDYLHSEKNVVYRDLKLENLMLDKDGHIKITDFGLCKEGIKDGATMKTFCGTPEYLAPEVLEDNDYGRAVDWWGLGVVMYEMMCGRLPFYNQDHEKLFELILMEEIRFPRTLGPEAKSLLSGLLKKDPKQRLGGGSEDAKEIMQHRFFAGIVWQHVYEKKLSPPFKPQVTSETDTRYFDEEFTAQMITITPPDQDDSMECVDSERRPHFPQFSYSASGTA
# Sequence of LYN (P07948 whole entry, the tested form may be a part): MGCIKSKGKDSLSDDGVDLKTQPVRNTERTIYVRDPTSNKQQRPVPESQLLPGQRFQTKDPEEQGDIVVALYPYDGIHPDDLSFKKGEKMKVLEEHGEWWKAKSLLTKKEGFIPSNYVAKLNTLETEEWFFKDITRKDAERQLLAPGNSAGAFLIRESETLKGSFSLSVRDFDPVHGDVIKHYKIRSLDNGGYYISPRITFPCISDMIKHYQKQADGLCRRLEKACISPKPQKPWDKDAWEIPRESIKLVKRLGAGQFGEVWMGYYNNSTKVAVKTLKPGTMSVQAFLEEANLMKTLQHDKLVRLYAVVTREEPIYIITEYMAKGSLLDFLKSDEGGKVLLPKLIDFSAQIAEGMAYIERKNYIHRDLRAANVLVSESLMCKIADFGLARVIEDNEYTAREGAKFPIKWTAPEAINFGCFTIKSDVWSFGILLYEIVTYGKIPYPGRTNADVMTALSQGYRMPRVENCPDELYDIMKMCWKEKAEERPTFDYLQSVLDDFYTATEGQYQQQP
# Sequence of IGF1R (P08069 31-1367): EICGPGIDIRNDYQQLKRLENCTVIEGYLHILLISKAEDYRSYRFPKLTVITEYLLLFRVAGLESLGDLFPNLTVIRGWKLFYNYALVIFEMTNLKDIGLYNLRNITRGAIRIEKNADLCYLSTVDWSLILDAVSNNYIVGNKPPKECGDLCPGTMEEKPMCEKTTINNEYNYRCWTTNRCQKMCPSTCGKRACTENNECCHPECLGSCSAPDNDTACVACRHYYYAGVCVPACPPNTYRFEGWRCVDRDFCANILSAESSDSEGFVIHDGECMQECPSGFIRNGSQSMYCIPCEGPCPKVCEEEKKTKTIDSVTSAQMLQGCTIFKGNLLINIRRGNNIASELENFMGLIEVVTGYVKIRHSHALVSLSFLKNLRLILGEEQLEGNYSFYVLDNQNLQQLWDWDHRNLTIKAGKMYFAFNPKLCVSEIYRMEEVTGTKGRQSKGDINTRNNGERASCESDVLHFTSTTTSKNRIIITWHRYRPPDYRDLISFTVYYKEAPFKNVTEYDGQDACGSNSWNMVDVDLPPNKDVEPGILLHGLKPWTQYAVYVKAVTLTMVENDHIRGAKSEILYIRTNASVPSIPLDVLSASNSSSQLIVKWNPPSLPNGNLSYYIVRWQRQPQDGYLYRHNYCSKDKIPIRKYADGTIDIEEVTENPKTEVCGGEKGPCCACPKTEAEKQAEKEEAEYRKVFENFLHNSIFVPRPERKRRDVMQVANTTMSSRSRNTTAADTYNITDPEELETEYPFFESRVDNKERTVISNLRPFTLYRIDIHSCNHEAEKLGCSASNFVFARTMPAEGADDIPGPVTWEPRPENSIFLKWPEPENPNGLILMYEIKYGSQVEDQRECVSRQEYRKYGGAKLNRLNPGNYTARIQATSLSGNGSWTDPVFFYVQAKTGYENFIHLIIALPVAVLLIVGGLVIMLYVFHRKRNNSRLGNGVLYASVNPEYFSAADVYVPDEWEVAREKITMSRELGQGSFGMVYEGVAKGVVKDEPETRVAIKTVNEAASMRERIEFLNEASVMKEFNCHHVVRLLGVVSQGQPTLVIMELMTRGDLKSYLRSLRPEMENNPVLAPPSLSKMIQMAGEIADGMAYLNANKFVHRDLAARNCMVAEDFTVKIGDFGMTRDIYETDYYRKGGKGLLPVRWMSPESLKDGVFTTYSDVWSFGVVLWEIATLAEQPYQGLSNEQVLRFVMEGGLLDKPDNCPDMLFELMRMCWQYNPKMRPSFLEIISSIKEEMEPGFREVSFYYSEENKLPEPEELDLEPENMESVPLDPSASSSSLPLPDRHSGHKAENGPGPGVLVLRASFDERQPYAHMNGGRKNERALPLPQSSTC
# Sequence of IR (P06213 28-1382): as the sequence (P06213 28-1382) above
# Sequence of SRC (P12931 whole entry): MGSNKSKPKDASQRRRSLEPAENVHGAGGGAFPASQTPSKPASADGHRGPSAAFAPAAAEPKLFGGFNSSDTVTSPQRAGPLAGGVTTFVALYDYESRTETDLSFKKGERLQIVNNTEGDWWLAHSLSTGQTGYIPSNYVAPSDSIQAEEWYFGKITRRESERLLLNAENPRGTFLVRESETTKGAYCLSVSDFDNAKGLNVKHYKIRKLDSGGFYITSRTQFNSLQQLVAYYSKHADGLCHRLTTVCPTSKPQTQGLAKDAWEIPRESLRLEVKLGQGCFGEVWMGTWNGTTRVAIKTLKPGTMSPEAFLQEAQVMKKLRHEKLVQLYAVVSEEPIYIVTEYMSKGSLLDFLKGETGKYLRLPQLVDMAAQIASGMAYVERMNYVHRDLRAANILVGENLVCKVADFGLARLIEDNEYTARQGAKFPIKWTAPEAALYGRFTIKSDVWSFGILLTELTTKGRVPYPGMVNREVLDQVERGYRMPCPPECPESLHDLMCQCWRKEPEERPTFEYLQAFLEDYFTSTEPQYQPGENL
# Sequence of Akt3 (Q9Y243 whole entry): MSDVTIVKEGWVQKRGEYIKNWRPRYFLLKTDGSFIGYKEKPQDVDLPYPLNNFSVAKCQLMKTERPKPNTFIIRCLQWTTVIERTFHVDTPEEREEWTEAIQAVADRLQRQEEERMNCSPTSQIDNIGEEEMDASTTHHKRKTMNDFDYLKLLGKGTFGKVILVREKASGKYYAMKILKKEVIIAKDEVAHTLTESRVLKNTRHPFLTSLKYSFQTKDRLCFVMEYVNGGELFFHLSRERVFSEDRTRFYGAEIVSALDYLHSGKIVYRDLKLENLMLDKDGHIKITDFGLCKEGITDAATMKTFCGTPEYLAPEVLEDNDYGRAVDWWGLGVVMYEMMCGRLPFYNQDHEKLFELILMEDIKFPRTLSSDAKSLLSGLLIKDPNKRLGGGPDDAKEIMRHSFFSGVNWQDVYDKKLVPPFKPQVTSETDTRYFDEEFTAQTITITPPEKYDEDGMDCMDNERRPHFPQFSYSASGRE
smiles,measurement,setting,value
"COc1cc([C@@H]2c3cc4c(cc3[C@H](O)[C@H]3COC(=O)[C@@H]23)OCO4)cc(OC)c1OC [AXL-1717, (5R,5aR,8aS,9R)-5-hydroxy-9-(3,4,5-trimethoxyphenyl)-5a,6,8a,9-tetrahydro-5H-[2]benzofuro[5,6-f][1,3]benzodioxol-8-one]",inhibition of tyrosine phosphorylation of a selected panel of receptors less related to IGF-IR (in words),"FGF-R, PDGF-R, or EGF-R",does not co-inhibit
same,inhibition of tyrosine phosphorylation of the IR (in words),IR,does not co-inhibit
"CC(C)c1cc(CNc2nc(Nc3cc(C4CC4)[nH]n3)cc(N3CCN(C)CC3)n2)on1 [XL228, N4-(5-cyclopropyl-1H-pyrazol-3-yl)-N2-[(3-isopropylisoxazol-5-yl)methyl]-6-(4-methylpiperazin-1-yl)pyrimidine-2,4-diamine]",IC50,SRC,6.1 nM
same,IC50,LYN,2 nM
same,maximum tolerated dose (MTD),[1],6.5 mg/kg
same,IC50,ABL T3151,1.4 nM
"Cn1ncc(Cl)c1-c1cc(C(=O)N[C@H](CN)Cc2cccc(F)c2)sc1Cl [Afuresertib, N-[(1S)-1-(aminomethyl)-2-(3-fluorophenyl)ethyl]-5-chloro-4-(4-chloro-2-methyl-pyrazol-3-yl)thiophene-2-carboxamide]",maximum tolerated dose (MTD),[2],125 mg per day
Cc1cc(N2CCOCC2)cc2[nH]c(-c3c(NC[C@@H](O)c4cccc(Cl)c4)cc[nH]c3=O)nc12 [BMS-536924],IC50,Mek,182 nM
same,activity for Akt1 (in words),Akt1,very little activity
same,activity for MAPK1/2 (in words),MAPK1/2,very little activity
"CCc1cc(Nc2nccc(-c3c(-c4ccc(OC)c(C(=O)Nc5c(F)cccc5F)c4)nc4ccccn34)n2)c(OC)cc1N1CCC(N2CCN(S(C)(=O)=O)CC2)CC1 [GSK1904529A, N-(2,6-difluorophenyl)-5-[3-[2-[5-ethyl-2-methoxy-4-[4-(4-methylsulfonylpiperazin-1-yl)-1-piperidyl]anilino]pyrimidin-4-yl]imidazo[1,2-a]pyridine-2-yl]-2-methoxy-benzamide]","selectivity for IGF1R/IR than Akt1/2, Aurora A/B, B-Raf, CDK2, and EGFR",[3],> 100 fold
"C[C@@]1(C(=O)Nc2ccc(F)nc2)CCCN1c1nc(Nc2cc(C3CC3)[nH]n2)c2cccn2n1 [BMS-754807, 1-[4-[(5-cyclopropyl-1H-pyrazol-3-yl)amino]pyrrolo[2,1-f][1,2,4]triazin-2-yl]-N-(6-fluoro-3-pyridyl)-2-methyl-pyrrolidine-2-carboxamide]",activity to PKC (in words),PKC,little activity
same,activity to PKA (in words),PKA,little activity
same,synergy and activity of the IGF1Ri combined with MK-2206 (in words),colon cancer cell lines,much lower
"C[C@]1(O)C[C@@](N)(c2ccc(-c3nc4n(c3-c3ccccc3)COc3ccncc3-4)cc2)C1 [TAS-117, 3-amino-1-methyl-3-[4-(5-phenyl-8-oxa-3,6,12-triazatricyclo[7.4.0.0^2,6]trideca-1(9),2,4,10,12-pentaen-4-yl)phenyl]cyclobutan-1-ol]",IC50,Akt1; assay format not stated,4.8 nM
same,IC50,Akt2,1.6 nM
same,IC50,Akt3,44 nM
Cc1ccsc1C(=O)Nc1cc(CN2CCN(C(=O)CO)CC2)ccc1/C=C/c1n[nH]c2ccccc12 [KW-2450],IC50,IGF1R,7.39 nM
same,IC50,insulin receptor (IR),5.64 nM
